Patent US8735611B2, “Crystalline forms of cabazitaxel” (ScinoPharm Taiwan, Ltd., priority 2011, dated 2014)

Assay: Dynamic vapor sorption (DVS) analysis
Format: physicochemical
Conditions: over 2 cycles tested; consistent with loss of AcOH upon dehumidification, confirmed by 1H NMR after DVS
Experimental: XRPD analysis confirmed that Form C9 is crystalline. […] (FIG. 10c). Decomposition occurs at about 220° C., as indicated by the large weight loss observed by TGA around this temperature. […] This was confirmed by ^1H NMR spectroscopy after DVS analysis. KF titration of Form C9 indicated the presence of about 2.3% water.
A hot solution of cabazitaxel (0.1 g) in 1 mL of AcOH and 0.5 mL of H2O was slowly cooled to room temperature. The mixture was filtered and the resulting solids were dried in a vacuum oven to give cabazitaxel Form C9 as a white solid (melting point: 152.5-159.3° C.). […] This was consistent with a loss of AcOH upon dehumification, which was confirmed by ^1H NMR spectroscopic analysis after the DVS test.

## CO[C@H]1C(=O)[C@]2(C)[C@@H](OC)C[C@H]3OC[C@@]3(OC(C)=O)[C@H]2[C@H](OC(=O)c2ccccc2)[C@]2(O)C[C@H](OC(=O)[C@H](O)[C@@H](NC(=O)OC(C)(C)C)c3ccccc3)C(C)=C1C2(C)C [Form C9, cabazitaxel]
  weight loss and gain upon changing humidity (DVS): non-perfectly reversible weight loss and gain upon changing humidity
